Laboratory results published in patent US3983102A, “Process for preparing 5"-amino-4',5"-dideoxybutirosin A” (Parke, Davis & Company, priority 1975, dated 1976).
≈ marks a conversion by molar mass, not a printed value.

Key:
Experiment in all cases: in vitro antibacterial screening, MIC by microtitration in TSB
Format in all cases: cell-based
Pseudo. aerug. G-76 = details: Pseudomonas aeruginosa, Pseudo. aerug. G-76, butirosin and gentamicin resistant
From the text: (§1) They show activity when tested by well-recognized in vitro antibacterial screening procedures.

Pseudo. aerug. 58.38 = details: Pseudomonas aeruginosa
From the text: as §1

Staph aureus S18713 = details: Staphylococcus aureus, Staph aureus S18713, butirosin resistant
From the text: as §1

Pseudo. aerug. Aquilar = details: Pseudomonas aeruginosa, butirosin resistant
From the text: as §1

Entero. cloacae IMM-50 = details: Enterobacter cloacae, IMM50
From the text: as §1

Pseudo. aerug. 74C-1 = details: Pseudomonas aeruginosa
From the text: as §1

Pseudo. aerug. LA-3399 = details: Pseudomonas aeruginosa
From the text: as §1

Pseudo. aerug. 733 = details: Pseudomonas aeruginosa
From the text: as §1

Pseudo. aerug. VAD12-7-7 = details: Pseudomonas aeruginosa
From the text: as §1

Pseudo. aerug. 130 = details: Pseudomonas aeruginosa, Pseudo. aerug. 130, gentamicin resistant
From the text: as §1

Serr. marcescens IMM-5 = details: Serratia marcescens, IMM5
From the text: as §1

Pseudo. aerug. No. 28 = details: Pseudomonas aeruginosa
From the text: as §1

Pseudo. aerug. UI-18 = details: Pseudomonas aeruginosa
From the text: as §1

Klebs. pneumoniae MGH-1 = details: Klebsiella pneumoniae, MGH1
From the text: as §1

Esch. coli JR-76.2 = details: Escherichia coli, JR76.2
From the text: as §1

`NCC[C@H](O)C(=O)N[C@@H]1C[C@H](N)[C@@H](O[C@H]2O[C@H](CN)C[C@H](O)[C@H]2N)[C@H](O[C@@H]2O[C@H](CN)[C@H](O)[C@H]2O)[C@H]1O` [I carbonate, 5"-amino-4',5"-dideoxybutirosin A] was tested. Which MIC (Pseudo. aerug. G-76) did it give?
Its MIC is 12.5 µg/mL (≈ 23.2 µM).

What about the MIC (Pseudo. aerug. 58.38) of the same compound?
The MIC was 6.3 µg/mL (≈ 11.7 µM).

What about the MIC (Staph aureus S18713) of the same compound?
The MIC was 6.3 µg/mL (≈ 11.7 µM).

And the MIC (Pseudo. aerug. Aquilar)?
The MIC was 25 µg/mL (≈ 46.4 µM).

What about the MIC (Entero. cloacae IMM-50) of the same compound?
Its MIC is 6.3 µg/mL (≈ 11.7 µM).

And the MIC (Pseudo. aerug. 74C-1)?
The MIC was 3.1 µg/mL (≈ 5.76 µM).

And the MIC (Pseudo. aerug. LA-3399)?
The MIC was 12.5 µg/mL (≈ 23.2 µM).

What about the MIC (Pseudo. aerug. 733) of the same compound?
Its MIC is 6.3 µg/mL (≈ 11.7 µM).

What about the MIC (Pseudo. aerug. VAD12-7-7) of the same compound?
The MIC was 1.6 µg/mL (≈ 2.97 µM).

What about the MIC (Pseudo. aerug. 130) of the same compound?
The MIC was 6.3 µg/mL (≈ 11.7 µM).

What about the MIC (Serr. marcescens IMM-5) of the same compound?
The MIC was 12.5 µg/mL (≈ 23.2 µM).

And the MIC (Pseudo. aerug. No. 28)?
Its MIC is 3.1 µg/mL (≈ 5.76 µM).

What about the MIC (Pseudo. aerug. UI-18) of the same compound?
Its MIC is 6.3 µg/mL (≈ 11.7 µM).

What about the MIC (Klebs. pneumoniae MGH-1) of the same compound?
The MIC was 6.3 µg/mL (≈ 11.7 µM).

What about the MIC (Esch. coli JR-76.2) of the same compound?
The MIC was 25 µg/mL (≈ 46.4 µM).
